pIC50: −log10 of the molar value. Where two headings read alike, the source gives them in different places.
Molecular target: T1, c-MET (Homo sapiens, UniProt P08581)
T1 construct: Purified GST fusion protein containing the Met kinase domain, Sugen, Inc
Assay: MET Transphosphorylation Assay (ELISA, poly(Glu,Tyr) 4:1 substrate)
Type: biochemical
Procedure: MET Transphosphorylation Assay
This assay is used to measure phosphotyrosine levels on a poly(glutamic acid:tyrosine (4:1)) substrate as a means for identifying agonists/antagonists of met transphosphorylation of the substrate.
• 1. […] PBS, Gibco Catalog #450-1300EB • 4. 50 mM HEPES • 5. […] Purified GST fusion protein containing the Met kinase domain, Sugen, Inc. • 7. TBST Buffer. • 8. 10% aqueous (MilliQue H2O) DMSO. • 9. […] 2× Kinase Dilution Buffer: for 100 ml, mix 10 mL 1M HEPES at pH 7.5 with 0.4 mL 5% BSA/PBS, 0.2 mL 0.1M sodium orthovanadate and 1 mL 5M sodium chloride in 88.4 mL dH2O. • 11. 4× ATP Reaction Mixture: for 10 mL, mix 0.4 mL 1M manganese chloride and 0.02 mL 0.1M ATP in 9.56 mL dH2O. • 12. 4× Negative Controls Mixture: for 10 mL, mix 0.4 mL 1M manganese chloride in 9.6 mL dH2O. • 13. […] 500 mM EDTA. • 15. Antibody Dilution Buffer: for 100 mL, mix 10 mL 5% BSA/PBS, 0.5 mL 5% Carnation Instant Milk® in PBS and 0.1 mL 0.1M sodium orthovanadate in 88.4 mL TBST. • 16. Rabbit polyclonal antophosphotyrosine antibody, Sugen, Inc. • 17. Goat anti-rabbit horseradish peroxidase conjugated antibody, Biosource, Inc. • 18. ABTS Solution: for 1 L, mix 19.21 g citric acid, 35.49 g Na2HPO4 and 500 mg ABTS with sufficient dH2O to make 1 L. • 19. ABTS/H2O2: mix 15 mL ABST solution with 2 μL H2O2 five minutes before use. • 20. 0.2M HCl Procedure: • 1. Coat ELISA plates with 2 μg Poly(Glu-Tyr) in 100 μL PBS, store overnight at 4° C. • 2. Block plate with 150 μL of 5% BSA/PBS for 60 min. • 3. Wash plate twice with PBS, once with 50 mM Hepes buffer pH 7.4. • 4. Add 50 μl of the diluted kinase to all wells. (Purified kinase is diluted with Kinase Dilution Buffer. Final concentration should be 10 ng/well.) • 5. Add 25 μL of the test compound (in 4% DMSO) or DMSO alone (4% in dH2O) for controls to plate. • 6. Incubate the kinase/compound mixture for 15 minutes. • 7. Add 25 μL of 40 mM MnCl2 to the negative control wells. • 8. Add 25 μL ATP/MnCl2 mixture to the all other wells (except the negative controls). Incubate for 5 min. • 9. Add 25 μL 500 mM EDTA to stop reaction. • 10. Wash plate 3× with TBST. • 11. Add 100 μL rabbit polyclonal anti-Ptyr diluted 1:10,000 in Antibody Dilution Buffer to each well. Incubate, with shaking, at room temperature for one hour. • 12. Wash plate 3× with TBST. • 13. Dilute Biosource HRP conjugated anti-rabbit antibody 1: 6,000 in Antibody Dilution buffer. Add 100 μL per well and incubate at room temperature, with shaking, for one hour. • 14. Wash plate 1× with PBS. • 15. Add 100 μl of ABTS/H2O2 solution to each well. • 16. If necessary, stop the development reaction with the addition of 100 μl of 0.2M HCl per well. • 17. […]

[1] = purified GST fusion protein containing the Met kinase domain, poly(glu, tyr) 4:1 substrate, read-out: c-MET IC50

T1 sequence (P08581 1078-1345 limits assumed): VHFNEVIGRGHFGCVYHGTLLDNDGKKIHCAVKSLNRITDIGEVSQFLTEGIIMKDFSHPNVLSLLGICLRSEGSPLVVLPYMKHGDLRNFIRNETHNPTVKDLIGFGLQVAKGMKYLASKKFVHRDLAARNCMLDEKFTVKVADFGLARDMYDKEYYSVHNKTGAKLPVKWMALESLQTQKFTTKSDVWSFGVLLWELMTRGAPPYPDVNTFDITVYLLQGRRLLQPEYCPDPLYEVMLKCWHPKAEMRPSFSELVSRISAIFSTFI

pIC50 [1]	pIC50	SMILES
7.74		Oc1ccc(Cc2nnc3nc4[nH]c5ccccc5c4nn23)cc1 [Example 17, 4-(9H-1,2,3a,4,9,10-Hexaaza-cyclopenta[b]fluoren-3-ylmethyl)-phenol]
7.44		Oc1ccc(Cc2nnc3nc4[nH]c5c(Cl)ccc(Cl)c5c4nn23)cc1 [Example 18, 4-(5,8-Dichloro-9H-1,2,3a,4,9,10-hexaaza-cyclopenta[b]fluoren-3-ylmethyl)-phenol]
	7.92	COc1ccc2[nH]c3nc4nnc(Cc5ccc(O)cc5)n4nc3c2c1Cl [Example 19, 4-(5-Chloro-6-methoxy-9H-1,2,3a,4,9,10-hexaaza-cyclopenta[b]fluoren-3-ylmethyl)-phenol]
7.34		COc1cc(Cl)c2[nH]c3nc4nnc(Cc5ccc(O)cc5)n4nc3c2c1Cl [Example 20, 4-(5,8-Dichloro-6-methoxy-9H-1,2,3a,4,9,10-hexaaza-cyclopenta[b]fluoren-3-ylmethyl)-phenol]
8.00		Oc1ccc(Cc2nnc3nc4[nH]c5cccc(Cl)c5c4nn23)cc1 [Example 21, 4-(5-Chloro-9H-1,2,3a,4,9,10-hexaaza-cyclopenta[b]fluoren-3-ylmethyl)-phenol]
7.46		Oc1ccc(Cc2nnc3nc4[nH]c5c(Cl)cccc5c4nn23)cc1 [Example 22, 4-(8-Chloro-9H-1,2,3a,4,9,10-hexaaza-cyclopenta[b]fluoren-3-ylmethyl)-phenol]
6.34		Oc1ccc(Cc2nnc3nc4[nH]c5c(Cl)cc(Cl)c(Cl)c5c4nn23)cc1 [Example 23, 4-(5,6,8-Trichloro-9H-1,2,3a,4,9,10-hexaaza-cyclopenta[b]fluoren-3-ylmethyl)-phenol]
7.66		Cc1ccc(C)c2c1[nH]c1nc3nnc(Cc4ccc(O)cc4)n3nc12 [Example 24, 4-(5,8-Dimethyl-9H-1,2,3a,4,9,10-hexaaza-cyclopenta[b]fluoren-3-ylmethyl)-phenol, dihydrate]
7.26		Cc1cc(C)c2[nH]c3nc4nnc(Cc5ccc(O)cc5)n4nc3c2c1 [Example 25, 4-(6,8-Dimethyl-9H-1,2,3a,4,9,10-hexaaza-cyclopenta[b]fluoren-3-ylmethyl)-phenol]
7.60		Cc1cc(Cl)cc2c1[nH]c1nc3nnc(Cc4ccc(O)cc4)n3nc12 [Example 26, 4-(6-Chloro-8-methyl-9H-1,2,3a,4,9,10-hexaaza-cyclopenta[b]fluoren-3-ylmethyl)-phenol]
7.38		N[C@H]1CCN(C(=O)c2ccc3[nH]c4nc5nnc(Cc6ccc(F)cc6)n5nc4c3c2Cl)C1 [Example 34, [(3S)-3-Amino-pyrrolidin-1-yl]-[5-chloro-3-(4-fluoro-benzyl)-9H-1,2,3a,4,9,10-hexaaza-cyclopenta[b]fluoren-6-yl]-methanone]
7.55		Cc1cc(OCCN2CCOCC2)c(C)c2c1[nH]c1nc3nnc(Cc4ccc(O)cc4)n3nc12 [Example 35, 4-[5,8-Dimethyl-6-(2-morpholin-4-yl-ethoxy)-9H-1,2,3a,4,9,10-hexaaza-cyclopenta[b]fluoren-3-ylmethyl]-phenol]
6.25		Cc1cc(OCCN2CCOCC2)c(C)c2c1[nH]c1nc3nnc(Cc4ccc(F)cc4)n3nc12 [Example 36, 3-(4-Fluoro-benzyl)-5,8-dimethyl-6-(2-morpholin-4-yl-ethoxy)-9H-1,2,3a,4,9,10-hexaaza-cyclopenta[b]fluorine]
